{
  "source": "patent US20260262643A1",
  "about": "“HERBICIDAL BENZOXAZINES” (FMC CORPORATION, priority 2022, published 2026)",
  "key": {"rice": {"test_system": "rice", "experiment": "Test D flooded paddy test", "type": "in vivo, Oryza sativa", "details": "250 g ai/ha, applied to paddy water, visual rating after 13 to 14 days, scale 0 to 100 (0 no effect, 100 complete control)", "how_it_was_run": "(§1)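 Seedlings reached the 2-leaf stage, then pots were flooded to 3 cm over the soil surface. Compound was applied into the water, depth was maintained, and plants stayed in the greenhouse 13 to 14 days before visual scoring (0–100) relative to controls.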"}, "blackgrass [1]": {"test_system": "blackgrass", "experiment": "Test C preemergence", "type": "in vivo, Alopecurus myosuroides", "how_it_was_run": "(§2)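 Soil-applied (pre) and foliar (post, 1–2 leaf, 2–10 cm) sprays; surfactant-containing non-phytotoxic solvent vehicle; loam/sand substrate. Readout: visual % control at 10 d, greenhouse, versus untreated.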"}, "ryegrass, Italian [2]": {"test_system": "ryegrass, Italian", "experiment": "Test C postemergence", "type": "in vivo, Lolium multiflorum", "details": "10 days, 0 to 100 scale (0 no effect, 100 complete control)", "how_it_was_run": "as §2"}, "soybean [3]": {"test_system": "soybean", "experiment": "Test C postemergence", "type": "in vivo, Glycine max", "details": "10 days, 0 to 100 scale (0 no effect, 100 complete control)", "how_it_was_run": "as §2"}, "sedge, umbrella": {"test_system": "sedge, umbrella", "experiment": "Test D flooded paddy test", "type": "in vivo, Cyperus difformis", "details": "250 g ai/ha, applied to paddy water, visual rating after 13 to 14 days, scale 0 to 100 (0 no effect, 100 complete control)", "how_it_was_run": "as §1"}, "kochia [4]": {"test_system": "kochia", "experiment": "Test C postemergence", "type": "in vivo, Bassia scoparia", "details": "10 days, 0 to 100 scale (0 no effect, 100 complete control)", "how_it_was_run": "as §2"}, "ducksalad": {"test_system": "ducksalad", "experiment": "Test D flooded paddy test", "type": "in vivo, Heteranthera limosa", "details": "250 g ai/ha, applied to paddy water, visual rating after 13 to 14 days, scale 0 to 100 (0 no effect, 100 complete control)", "how_it_was_run": "as §1"}, "oat, wild [5]": {"test_system": "oat, wild", "experiment": "Test C postemergence", "type": "in vivo, Avena fatua", "details": "10 days, 0 to 100 scale (0 no effect, 100 complete control)", "how_it_was_run": "as §2"}, "soybean [6]": {"test_system": "soybean", "experiment": "Test C preemergence", "type": "in vivo, Glycine max", "how_it_was_run": "as §2"}, "wheat [7]": {"test_system": "wheat", "experiment": "Test C postemergence", "type": "in vivo, Triticum aestivum", "details": "10 days, 0 to 100 scale (0 no effect, 100 complete control)", "how_it_was_run": "as §2"}, "barnyardgrass [8]": {"test_system": "barnyardgrass", "experiment": "Test D flooded paddy test", "type": "in vivo, Echinochloa crus-galli", "details": "250 g ai/ha, applied to paddy water, visual rating after 13 to 14 days, scale 0 to 100 (0 no effect, 100 complete control)", "how_it_was_run": "as §1"}, "kochia [9]": {"test_system": "kochia", "experiment": "Test C preemergence", "type": "in vivo, Bassia scoparia", "how_it_was_run": "as §2"}, "blackgrass [10]": {"test_system": "blackgrass", "experiment": "Test C postemergence", "type": "in vivo, Alopecurus myosuroides", "details": "10 days, 0 to 100 scale (0 no effect, 100 complete control)", "how_it_was_run": "as §2"}, "pigweed, palmer [11]": {"test_system": "pigweed, palmer", "experiment": "Test C preemergence", "type": "in vivo, Amaranthus palmeri", "how_it_was_run": "as §2"}, "ragweed [12]": {"test_system": "ragweed", "experiment": "Test C postemergence", "type": "in vivo, Ambrosia artemisiifolia", "details": "10 days, 0 to 100 scale (0 no effect, 100 complete control)", "how_it_was_run": "as §2"}, "barnyardgrass [13]": {"test_system": "barnyardgrass", "experiment": "Test C preemergence", "type": "in vivo, Echinochloa crusgalli", "how_it_was_run": "as §2"}, "pigweed, palmer [14]": {"test_system": "pigweed, palmer", "experiment": "Test C postemergence", "type": "in vivo, Amaranthus palmeri", "details": "10 days, 0 to 100 scale (0 no effect, 100 complete control)", "how_it_was_run": "as §2"}, "ragweed [15]": {"test_system": "ragweed", "experiment": "Test C preemergence", "type": "in vivo, Ambrosia artemisiifolia", "how_it_was_run": "as §2"}, "green foxtail [16]": {"test_system": "green foxtail", "experiment": "Test C preemergence", "type": "in vivo, Setaria viridis", "how_it_was_run": "as §2"}, "corn [17]": {"test_system": "corn", "experiment": "Test C preemergence", "type": "in vivo, Zea mays", "how_it_was_run": "as §2"}, "oat, wild [18]": {"test_system": "oat, wild", "experiment": "Test C preemergence", "type": "in vivo, Avena fatua", "how_it_was_run": "as §2"}, "green foxtail [19]": {"test_system": "green foxtail", "experiment": "Test C postemergence", "type": "in vivo, Setaria viridis", "details": "10 days, 0 to 100 scale (0 no effect, 100 complete control)", "how_it_was_run": "as §2"}, "wheat [20]": {"test_system": "wheat", "experiment": "Test C preemergence", "type": "in vivo, Triticum aestivum", "how_it_was_run": "as §2"}, "corn [21]": {"test_system": "corn", "experiment": "Test C postemergence", "type": "in vivo, Zea mays", "details": "10 days, 0 to 100 scale (0 no effect, 100 complete control)", "how_it_was_run": "as §2"}, "barnyardgrass [22]": {"test_system": "barnyardgrass", "experiment": "Test C postemergence", "type": "in vivo, Echinochloa crusgalli", "details": "10 days, 0 to 100 scale (0 no effect, 100 complete control)", "how_it_was_run": "as §2"}, "ryegrass, Italian [23]": {"test_system": "ryegrass, Italian", "experiment": "Test C preemergence", "type": "in vivo, Lolium multiflorum", "how_it_was_run": "as §2"}, "horseweed": {"test_system": "horseweed", "experiment": "Test C postemergence", "type": "in vivo, Erigeron canadensis", "details": "10 days, 0 to 100 scale (0 no effect, 100 complete control)", "how_it_was_run": "as §2"}, "galium": {"test_system": "galium", "experiment": "Test C postemergence", "type": "in vivo, Galium aparine", "details": "10 days, 0 to 100 scale (0 no effect, 100 complete control)", "how_it_was_run": "as §2"}, "[24]": {"details": "500 g ai/ha, preemergence, 0 to 100 scale (0 no effect, 100 complete control)"}, "[25]": {"details": "Preemergence, 125 g ai/ha, 0 to 100 scale, 0 no effect, 100 complete control"}},
  "data": [
    {"smiles": "CC(C)c1ncn(-c2cccc(C(=O)N3CC(C(F)(F)F)Oc4c(Cl)cccc43)c2)n1", "note": "(stereo not shown) [Compound 348]", "values": [
      {"measurement": "Plant response rating, Rice (Flood)", "setting": "rice", "result": 0},
      {"measurement": "Blackgrass plant response rating", "setting": "blackgrass [1]; [24]", "result": 90},
      {"measurement": "Plant response rating, Blackgrass", "setting": "blackgrass [1]; [25]", "result": 50},
      {"measurement": "Plant response rating, Ryegrass, Italian", "setting": "ryegrass, Italian [2]; 500 g ai/ha, postemergence", "result": 70},
      {"measurement": "Plant response rating, Ryegrass, Italian", "setting": "ryegrass, Italian [2]; Postemergence, 125 g ai/ha", "result": 30},
      {"measurement": "Plant response rating, Soybean", "setting": "soybean [3]; 500 g ai/ha, postemergence", "result": 100},
      {"measurement": "Plant response rating, Soybean", "setting": "soybean [3]; Postemergence, 125 g ai/ha", "result": 100},
      {"measurement": "Plant response rating, Sedge, Umbrella (Flood)", "setting": "sedge, umbrella", "result": 45},
      {"measurement": "Plant response rating, Kochia", "setting": "kochia [4]; 500 g ai/ha, postemergence", "result": 100},
      {"measurement": "Plant response rating, Kochia", "setting": "kochia [4]; Postemergence, 125 g ai/ha", "result": 70},
      {"measurement": "Plant response rating, Ducksalad (Flood)", "setting": "ducksalad", "result": 75},
      {"measurement": "Plant response rating, Oat, Wild", "setting": "oat, wild [5]; 500 g ai/ha, postemergence", "result": 60},
      {"measurement": "Plant response rating, Oat, Wild", "setting": "oat, wild [5]; Postemergence, 125 g ai/ha", "result": 20},
      {"measurement": "Soybean plant response rating", "setting": "soybean [6]; [24]", "result": 80},
      {"measurement": "Plant response rating, Soybean", "setting": "soybean [6]; [25]", "result": 40},
      {"measurement": "Plant response rating, Wheat", "setting": "wheat [7]; 500 g ai/ha, postemergence", "result": 30},
      {"measurement": "Plant response rating, Wheat", "setting": "wheat [7]; Postemergence, 125 g ai/ha", "result": 10},
      {"measurement": "Plant response rating, Barnyardgrass (Flood)", "setting": "barnyardgrass [8]", "result": 30},
      {"measurement": "Kochia plant response rating", "setting": "kochia [9]; [24]", "result": 100},
      {"measurement": "Plant response rating, Kochia", "setting": "kochia [9]; [25]", "result": 90},
      {"measurement": "Plant response rating, Blackgrass", "setting": "blackgrass [10]; 500 g ai/ha, postemergence", "result": 100},
      {"measurement": "Plant response rating, Blackgrass", "setting": "blackgrass [10]; Postemergence, 125 g ai/ha", "result": 70},
      {"measurement": "Pigweed, Palmer plant response rating", "setting": "pigweed, palmer [11]; [24]", "result": 100},
      {"measurement": "Plant response rating, Pigweed, Palmer", "setting": "pigweed, palmer [11]; [25]", "result": 100},
      {"measurement": "Plant response rating, Ragweed", "setting": "ragweed [12]; 500 g ai/ha, postemergence", "result": 60},
      {"measurement": "Plant response rating, Ragweed", "setting": "ragweed [12]; Postemergence, 125 g ai/ha", "result": 30},
      {"measurement": "Barnyardgrass plant response rating", "setting": "barnyardgrass [13]; [24]", "result": 100},
      {"measurement": "Plant response rating, Barnyardgrass", "setting": "barnyardgrass [13]; [25]", "result": 60},
      {"measurement": "Plant response rating, Pigweed, Palmer", "setting": "pigweed, palmer [14]; 500 g ai/ha, postemergence", "result": 100},
      {"measurement": "Plant response rating, Pigweed, Palmer", "setting": "pigweed, palmer [14]; Postemergence, 125 g ai/ha", "result": 90},
      {"measurement": "Ragweed plant response rating", "setting": "ragweed [15]; [24]", "result": 20},
      {"measurement": "Plant response rating, Ragweed", "setting": "ragweed [15]; [25]", "result": 20},
      {"measurement": "Foxtail, Green plant response rating", "setting": "green foxtail [16]; [24]", "result": 100},
      {"measurement": "Plant response rating, Foxtail, Green", "setting": "green foxtail [16]; [25]", "result": 100},
      {"measurement": "Corn plant response rating", "setting": "corn [17]; [24]", "result": 0},
      {"measurement": "Plant response rating, Corn", "setting": "corn [17]; [25]", "result": 0},
      {"measurement": "Oat, Wild plant response rating", "setting": "oat, wild [18]; [24]", "result": 90},
      {"measurement": "Plant response rating, Oat, Wild", "setting": "oat, wild [18]; [25]", "result": 60},
      {"measurement": "Plant response rating, Foxtail, Green", "setting": "green foxtail [19]; 500 g ai/ha, postemergence", "result": 70},
      {"measurement": "Plant response rating, Foxtail, Green", "setting": "green foxtail [19]; Postemergence, 125 g ai/ha", "result": 50},
      {"measurement": "Wheat plant response rating", "setting": "wheat [20]; [24]", "result": 80},
      {"measurement": "Plant response rating, Wheat", "setting": "wheat [20]; [25]", "result": 50},
      {"measurement": "Plant response rating, Corn", "setting": "corn [21]; 500 g ai/ha, postemergence", "result": 30},
      {"measurement": "Plant response rating, Corn", "setting": "corn [21]; Postemergence, 125 g ai/ha", "result": 10},
      {"measurement": "Plant response rating, Barnyardgrass", "setting": "barnyardgrass [22]; 500 g ai/ha, postemergence", "result": 40},
      {"measurement": "Plant response rating, Barnyardgrass", "setting": "barnyardgrass [22]; Postemergence, 125 g ai/ha", "result": 10},
      {"measurement": "Ryegrass, Italian plant response rating", "setting": "ryegrass, Italian [23]; [24]", "result": 100},
      {"measurement": "Plant response rating, Ryegrass, Italian", "setting": "ryegrass, Italian [23]; [25]", "result": 90},
      {"measurement": "Plant response rating, Horseweed", "setting": "horseweed; 500 g ai/ha, postemergence", "result": 40},
      {"measurement": "Plant response rating, Horseweed", "setting": "horseweed; Postemergence, 125 g ai/ha", "result": 0},
      {"measurement": "Plant response rating, Galium", "setting": "galium; 500 g ai/ha, postemergence", "result": 100},
      {"measurement": "Plant response rating, Galium", "setting": "galium; Postemergence, 125 g ai/ha", "result": 100}
    ]}
  ]
}
